Laboratory results: paper PMC13324472, “A family of ribosome hibernation factors widespread in Archaea” (Nature Communications, 2026)

Biological target: T1, HibA-CM (isolated HibA N-terminal domain, CBS module) (Pyrococcus abyssi, UniProt Q9UYR4)
T1 construct: gene PAB0961; N-terminal CBS module (residues 1-269 given as the module), made by stop codon at position 272; N-terminal His6 tag, expressed in E. coli Rosetta, Talon and Superdex 200
Assay: isothermal titration calorimetry
Assay type: binding

T1 sequence (Q9UYR4 entry or part of it): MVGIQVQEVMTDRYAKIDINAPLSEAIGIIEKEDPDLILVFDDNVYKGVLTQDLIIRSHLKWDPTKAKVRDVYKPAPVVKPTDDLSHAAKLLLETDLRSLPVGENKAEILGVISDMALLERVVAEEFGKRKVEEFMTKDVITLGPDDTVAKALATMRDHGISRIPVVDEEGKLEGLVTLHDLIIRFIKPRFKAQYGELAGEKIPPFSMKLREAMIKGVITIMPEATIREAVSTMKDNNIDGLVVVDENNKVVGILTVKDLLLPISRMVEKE

Kd | Structure (SMILES)
65 ± 1 µM | Nc1ncnc2c1ncn2[C@@H]1O[C@H](COP(=O)(O)OP(=O)(O)O)[C@@H](O)[C@H]1O [ADP]
12 ± 2 µM | Nc1ncnc2c1ncn2[C@@H]1O[C@H](COP(=O)(O)O)[C@@H](O)[C@H]1O [AMP]
113 ± 21 µM | Nc1ncnc2c1ncn2[C@@H]1O[C@H](COP(=O)(O)OP(=O)(O)OP(=O)(O)O)[C@@H](O)[C@H]1O [ATP]
